Results published in patent publication US20180318200A1, “MOUTHWASH PRODUCTS AND METHODS” (COLGATE-PALMOLIVE COMPANY, priority 2015, published 2018).
Read-outs that look alike come from different tables or passages of the source.

Legend:
[1] = Microhardness (Knoop) remineralization assay on etched enamel blocks; parameters: species or system bovine; conditions: hydrolysate filtrate with CPC 0.1% and fluoride (NaF) as stated in the label
Method: Enamel blocks are prepared as described in Example 1. […] Blocks with a Knoop hardness (KH) of at least 300 are selected. The blocks are etched by immersing in 30% phosphoric acid for 15 seconds. The KH on the left and right sides of the blocks are measured. Subsequently, the right side of the blocks are covered with tape prior to treating the blocks with 20 mg/ml solution of hydrolyzed wheat protein (Gluadin W20 from BASF) or hydrolyzed rice protein (GLUADIN R from BASF), each neutralized as described in example 1, for two terms of 30 minutes. (The tape on the right hand side of the blocks prevents exposure of this side to the protein solution and serves as an internal control). The blocks are washed twice with DI water @ 5 minutes, 500 PRM between the two treatments and after the second treatment. Subsequently, the tape is removed and the blocks are incubated in AS solution (0.2 mM MgCl2, 1 mM CaCl2.H2O, 20 mM HEPES buffer, 4 mM KH2PO4, 16 mM KCl, 4.5 mM NH4Cl, 300 ppm NaF, 0.05 wt. % NaN3, at pH 7 (adjusted with 1M NaOH)) for 7 days. After rinsing the enamel blocks with DI water and air-drying the rinsed blocks, microhardness is measured again. Surface microhardness regain (SMHL, Remin %) as a percent is calculated as […]

[2] = evaluation with weight adjustment; two 30 minute ex vivo treatments, 7 days in situ in retainer
Method: A treatment phase is completed ex vivo. Initial microhardness (MH) measurements are taken on sound, bovine enamel blocks (MHBaseline). The blocks are then etched with 30% phosphoric acid until there was a 40% change in the microhardness reading from Baseline. The microhardness is recorded as etched (Equation 1, MHEtched). Each etched enamel block is then immersed in a 2 ml solution of pre-treated 0.2% wheat hydrolysate (Gluadin W20)+500 ppm F prepared as described above, or a 2 ml solution of 500 ppm F, for 30 minutes. After 30 minutes, the blocks are washed twice with DI water at 500 RPM for 5 minutes, and then dried with a paper towel. This treatment cycle is repeated. The blocks are then secured within the designated location on a retainer for placement in the oral cavity of a subject. Six enamel blocks are placed in each retainer. Pre-punched holes on the retainer allow saliva fluid to contact etched enamel and to provide minerals for remineralization. […] The treated and control enamel blocks are randomized on the left or right side of the retainer. The retainers are then stored in a refrigerator until Day 1 of the study.
Twenty-six subjects are included in this randomized, blinded study. […] After 7 days, the enamel blocks are taken out of the appliance to take the final microhardness measurements (MHRemineralized) Demineralization and remineralization are calculated as follows: […]

[3] = Nanoindentation (nanohardness and Young's modulus) of acid-etched enamel blocks; parameters: species or system bovine; conditions: hydrolyzed wheat protein 0.5 weight %, fluoride 500 ppm; three cycles of 30 minutes treatment + 22 to 24 hours AS
Method: Enamel blocks are prepared as described in Example 1. Acid-etching is achieved by placing the enamel blocks in 1% citric acid solution (pH 3.8) for 15 minutes. The nanohardness and Young's modulus at 500 nm depth are measured prior to and after etching. Etched enamel blocks are incubated with a solution of hydrolyzed wheat protein (GLUADIN W20), at a concentration of 0.5 weight %, for 30 minutes (2 ml solution/block), followed by an incubation with AS solution as described in Example 1, for 22 to 24 hours. The hydrolyzed wheat protein and AS incubation steps are repeated two additional times, after which the enamel blocks are rinsed with DI water and air-dried. The nanohardness and Young's modulus of the treated enamel blocks are measured at 500 nm depth to assess the enamel repair effects of the hydrolyzed wheat protein. A solution of 500 ppm fluoride is used as a positive control for the experiment. The results are illustrated in Tables 2 and 3.

[4] = surface microhardness loss, 4 day cycling, four 10 minute treatments per day
Method: The selected enamel blocks are then the enamel blocks are pre-treated and subjected to 4 day cycling as described below, using DI water (negative control), 500 ppm F (positive control) and 0.2% wheat hydrolysate (Gluadin W20)+500 ppm F (test material) prepared as described in the previous example. The microhardness of the enamel blocks is measured again as final (MHfinal).
Each enamel block is sanitized in ethanol twice then washed in sterile DI water three times. Then each enamel block is pre-incubated in saliva supernatant at 4° C. overnight to form pellicle on the enamel surface.
Day Two to Five—Dentifrice treatment, demineralization and remineralization: Unstimulated whole saliva is collected from donors, who refrain from eating and oral hygiene in the morning. The saliva is pooled and centrifuged at 8000 rpm for 10 minutes. […] The sediment is washed once using sterile DI water and centrifuged at 8000 rpm for 10 minutes. The water supernatant is removed. The washed sediment is then diluted in the salivary supernatant TSB mixture to an OD (610 nm)=0.5. […]
Surface microhardness loss (SMHL, Demin %) as a percent was calculated as (1−(Microhardnessfinal/Microhardnesssound))*100.

Question: Which results are given for `F` [Fluoride, NaF]?
Answer: Remineralization % ([1]; listed as Buffer + 250 ppm fluoride): 11.73%; Remineralization % ([1]; listed as Buffer + 500 ppm fluoride): 15.87%; % Remin [2]: 27.6%; Nanohardness Repair at 500 nm depth (%) [3]: 31.12%; Young's Modulus Repair at 500 nm depth (%) [3]: 48.50%; Demineralization percentage ([4]; 0.2% sucrose): 8.36%; Demineralization percentage ([4]; 0.4% sucrose): 19.99%
